Experimental findings from ChEMBL document CHEMBL1201862, “PubChem BioAssay data set” (2004) are described below.

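Values below derive from 48-hour exposures of cells grown in 96-well plates, with endpoints linearly interpolated between the two concentrations bracketing the appropriate inhibition level. GI50: concentration for 50% inhibition of growth.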 Activity calls are given as the source filed them. Cut-off read from the data, not from the text of the source: active = GI50 up to about 1.1 µM and inactive = higher.

Among the test systems are SK-MEL-28; HOP-92; HL-60; HCT-116; M14; HCC 2998; Malme-3M; SNB-19; SK-OV-3; MDA-N; Hs-578T; NCI-H522; A549; CAKI-1; NCI-H226; IGROV-1; NCI-H23; SF-539; SR.
What all share (test): NCI tumour cell line growth inhibition, 48 h

As to `CC(C)(C)OC(=O)NCC(=O)N1CCCN(C(=O)CNC(=O)OC(C)(C)C)CC1`, the GI50 in the assay on SK-MEL-28, in the assay on HOP-92, in the assay on HL-60, with HCT-116, with M14 and with HCC 2998 was > 100 µM (inactive) each time. The GI50 with Malme-3M, with SNB-19, in the assay with SK-OV-3, with MDA-N, in the assay with Hs-578T and with NCI-H522 was > 100 µM (inactive) in each case. The GI50 in the assay on A549, in the assay with CAKI-1, in the assay with NCI-H226, in the assay on IGROV-1 and in the assay on NCI-H23 was > 100 µM (inactive) throughout.
Regarding `COC(=O)Nc1nc2cc(NC(=O)c3cccs3)ccc2[nH]1`, the GI50 in the assay on SK-MEL-28 is 38.5 µM (inactive); in the assay on HOP-92 it was 1.53 µM (inactive); in the assay with HL-60, 61.7 µM (inactive); with HCT-116, 34.4 µM (inactive); with M14, 33.7 µM (inactive); in the assay with Malme-3M it was 23.4 µM (inactive). The GI50 in the assay on SNB-19 is 32.1 µM (inactive); with SK-OV-3, 29 µM (inactive); in the assay on MDA-N, 10.4 µM (inactive); with Hs-578T it was 15.1 µM (inactive); in the assay with A549 it was 46.9 µM (inactive); in the assay on CAKI-1, 44.9 µM (inactive). Besides, the GI50 in the assay with NCI-H226 was > 100 µM (inactive); in the assay on IGROV-1 it was 0.296 µM (active); with NCI-H23, 35.4 µM (inactive); in the assay on SF-539, 21.9 µM (inactive).
Consider `CC(=N/NC(=S)N1CCCCCC1)/C(C)=N\NC(=S)N1CCCCCC1`, for which the GI50 in the assay on SK-MEL-28 is 1.88 µM (inactive); with HOP-92, 1.32 µM (inactive); in the assay on HCT-116 it was 5.08 µM (inactive); with M14, 5.25 µM (inactive); with HCC 2998, 3.12 µM (inactive); in the assay on Malme-3M it was 5.5 µM (inactive). For the same molecule, the GI50 in the assay on SNB-19 was 6.18 µM (inactive); in the assay with SK-OV-3 it was 3.88 µM (inactive); in the assay on MDA-N, 6.55 µM (inactive); in the assay on Hs-578T it was 3.87 µM (inactive); with NCI-H522 it was 4.14 µM (inactive); with A549, 5.3 µM (inactive). Moreover, the GI50 in the assay with CAKI-1 was 4.91 µM (inactive); in the assay with NCI-H226 it was 3.42 µM (inactive); in the assay with IGROV-1, 3.84 µM (inactive); with NCI-H23 it was 4.83 µM (inactive); with SF-539, 20.7 µM (inactive).
As to `COc1ccc2nc3c(c(N)c2c1)C1CCC3C1(C)C` (stereo not drawn), the GI50 in the assay with SK-MEL-28 was 30.8 µM (inactive); with HOP-92, 16.4 µM (inactive); with HL-60 it was 18.5 µM (inactive); with SR, 34.8 µM (inactive); in the assay with HCT-116, 32.4 µM (inactive); in the assay with M14, 17.8 µM (inactive). For the same molecule, the GI50 in the assay on HCC 2998 is 17.5 µM (inactive); in the assay with Malme-3M it was 24.3 µM (inactive); with SNB-19, > 100 µM (inactive); in the assay with SK-OV-3, 28.1 µM (inactive); in the assay on Hs-578T it was > 100 µM (inactive); in the assay with NCI-H522, 34.7 µM (inactive). The GI50 in the assay on A549 was 70.5 µM (inactive); with CAKI-1, 39.3 µM (inactive); in the assay on NCI-H226 it was 25.3 µM (inactive); with IGROV-1 it was 42.9 µM (inactive); with NCI-H23 it was 54.8 µM (inactive); in the assay on SF-539, 38.2 µM (inactive).
With `CC1=NCCN=C(C)C1/N=N/c1ccc2[nH]c(C)nc2c1`, the GI50 in the assay on SK-MEL-28 was 10.6 µM (inactive); in the assay with HOP-92 it was 4.7 µM (inactive); in the assay with HL-60, 3.54 µM (inactive); in the assay on HCT-116 it was 13.2 µM (inactive); in the assay on M14, 3.57 µM (inactive); with HCC 2998, 14 µM (inactive). The GI50 was 16 µM (inactive) in the assay on Malme-3M; 10 µM (inactive) in the assay on SNB-19; 19.1 µM (inactive) with SK-OV-3; 10.2 µM (inactive) with MDA-N; 23.3 µM (inactive) with Hs-578T; 17.4 µM (inactive) with NCI-H522. For the same molecule, the GI50 in the assay on A549 is 6.19 µM (inactive); in the assay with CAKI-1 it was 18.5 µM (inactive); in the assay with NCI-H226 it was 20.3 µM (inactive); with IGROV-1, 25.9 µM (inactive); in the assay on NCI-H23, 13.8 µM (inactive); with SF-539 it was 20.5 µM (inactive).
As to `C/C1=C\CC[C@@]2(C)O[C@@H]2C[C@@H]2[C@H](C/C(C)=C/CC1)OC(=O)C21CCN=N1` (stereo partly drawn), the GI50 was > 75 µM (inactive) in the assay on SK-MEL-28; > 75 µM (inactive) in the assay with HOP-92; 37.2 µM (inactive) in the assay with HL-60; > 75 µM (inactive) in the assay with HCT-116; > 75 µM (inactive) in the assay with M14; > 75 µM (inactive) in the assay on HCC 2998. Besides, the GI50 was > 75 µM (inactive) in the assay with Malme-3M; > 75 µM (inactive) in the assay with SNB-19; > 75 µM (inactive) with SK-OV-3; > 75 µM (inactive) in the assay on MDA-N; 38 µM (inactive) in the assay with Hs-578T; 72.4 µM (inactive) with NCI-H522. The GI50 was 51.2 µM (inactive) in the assay on A549; > 75 µM (inactive) in the assay with CAKI-1; > 100 µM (inactive) in the assay with NCI-H226; > 75 µM (inactive) in the assay with IGROV-1; > 75 µM (inactive) with NCI-H23; > 75 µM (inactive) with SF-539.
On to `COc1cc2c(cc1C)NC(=O)/C2=C/c1c(Cl)n(C)c2ccccc12`, for which the GI50 with SK-MEL-28 was 13 µM (inactive); with HL-60, 2.61 µM (inactive); in the assay with HCT-116, 5.46 µM (inactive); with M14, 10.6 µM (inactive); in the assay with HCC 2998, 5.18 µM (inactive); in the assay on Malme-3M, 8 µM (inactive). The GI50 was 12.8 µM (inactive) in the assay on SNB-19; 12.4 µM (inactive) in the assay on SK-OV-3; 2.15 µM (inactive) with MDA-N; 3.42 µM (inactive) in the assay on Hs-578T; 10.2 µM (inactive) in the assay on A549; 5.06 µM (inactive) with CAKI-1. Moreover, the GI50 is 4.53 µM (inactive) in the assay with NCI-H226, 3.81 µM (inactive) in the assay with IGROV-1, 6.27 µM (inactive) in the assay on NCI-H23 and 12.1 µM (inactive) in the assay on SF-539.
As to `O=c1ccn(C2OC(CN(O)CCC3C(O)C(CO)OC3n3ccc(=O)[nH]c3=O)C(O)C2O)c(=O)[nH]1` (stereo not drawn), the GI50 in the assay with HOP-92, in the assay on HCT-116, in the assay on M14, with HCC 2998, in the assay on Malme-3M and in the assay with SNB-19 was > 100 µM (inactive) in each case. Also, the GI50 in the assay on SK-OV-3, in the assay on MDA-N, in the assay with Hs-578T, with A549, with CAKI-1 and in the assay with NCI-H226 was > 100 µM (inactive) throughout. Besides, the GI50 with IGROV-1 and in the assay on NCI-H23 was > 100 µM (inactive) throughout.
Regarding `CC12C(=O)CC(CC1=O)C2(C)C`, the GI50 with SK-MEL-28, with HOP-92, in the assay with HL-60, in the assay with HCT-116, with M14 and with Malme-3M was > 100 µM (inactive) in each case. The GI50 in the assay with SNB-19, in the assay with SK-OV-3, with MDA-N, in the assay on Hs-578T, with NCI-H522 and in the assay on A549 was > 100 µM (inactive) throughout. Further, the GI50 with CAKI-1, in the assay with NCI-H226 and with IGROV-1 was > 100 µM (inactive) throughout.
As for `N#CCCN(CCC#N)c1ccc(/C=C2\N=C(c3ccccc3)N(c3ccccc3)C2=O)cc1`, the GI50 was > 100 µM (inactive) in the assay on SK-MEL-28; 5.19 µM (inactive) in the assay on HOP-92; 3.07 µM (inactive) with HL-60; 5.93 µM (inactive) in the assay with HCT-116; > 100 µM (inactive) in the assay with M14; > 100 µM (inactive) with Malme-3M. The GI50 in the assay on SNB-19 is > 100 µM (inactive); in the assay on SK-OV-3 it was > 100 µM (inactive); in the assay with MDA-N, > 100 µM (inactive); in the assay on Hs-578T, 19.3 µM (inactive); in the assay with NCI-H522, 18.7 µM (inactive); with A549, > 100 µM (inactive). Besides, the values for the GI50 in the assay on NCI-H226, in the assay on IGROV-1 and in the assay with SF-539 were > 100 µM (inactive), 25.8 µM (inactive) and 6.11 µM (inactive), respectively.
Take `CCOC(=O)CSc1nc(-c2ccc(OC)cc2)c(C#N)c(=O)[nH]1`: the GI50 with SK-MEL-28 is > 100 µM (inactive); in the assay with HOP-92, > 100 µM (inactive); in the assay on HL-60 it was 0.0495 µM (active); in the assay with SR, 84.9 µM (inactive); in the assay on HCT-116, > 100 µM (inactive); with M14, > 100 µM (inactive). Also, the GI50 with HCC 2998, with SNB-19, in the assay on SK-OV-3, in the assay with Hs-578T, in the assay on NCI-H522 and in the assay on A549 was > 100 µM (inactive) each time. Also, the GI50 in the assay on CAKI-1, in the assay with NCI-H226, with IGROV-1, with NCI-H23 and in the assay on SF-539 was > 100 µM (inactive) each time.
As for `CCC(=O)N(c1ccccc1)C(C)CN1CCC(O)(c2cccc(C(F)(F)F)c2)CC1` (stereo not drawn), the GI50 was 23.1 µM (inactive) in the assay with SK-MEL-28; 22.8 µM (inactive) with HOP-92; 17.8 µM (inactive) with HL-60; 17.3 µM (inactive) in the assay on HCT-116; 16.1 µM (inactive) with M14; 26.5 µM (inactive) with HCC 2998. For the same molecule, the GI50 in the assay on SNB-19 was > 100 µM (inactive); with SK-OV-3, 52.6 µM (inactive); in the assay on MDA-N it was 19.5 µM (inactive); with Hs-578T, 34.8 µM (inactive); with NCI-H522 it was 20.2 µM (inactive); in the assay with A549, 39 µM (inactive). Also, the GI50 was > 100 µM (inactive) in the assay on CAKI-1; 30.2 µM (inactive) with NCI-H226; 59.2 µM (inactive) in the assay with IGROV-1; 21.4 µM (inactive) with NCI-H23; 23.2 µM (inactive) in the assay with SF-539.
